Target: T1, ADAR1 (Homo sapiens, UniProt P55265)
T1 construct: endogenous in cells; host or cells: p110 KO A549 dual cells
T1 sequence (P55265 1-1226): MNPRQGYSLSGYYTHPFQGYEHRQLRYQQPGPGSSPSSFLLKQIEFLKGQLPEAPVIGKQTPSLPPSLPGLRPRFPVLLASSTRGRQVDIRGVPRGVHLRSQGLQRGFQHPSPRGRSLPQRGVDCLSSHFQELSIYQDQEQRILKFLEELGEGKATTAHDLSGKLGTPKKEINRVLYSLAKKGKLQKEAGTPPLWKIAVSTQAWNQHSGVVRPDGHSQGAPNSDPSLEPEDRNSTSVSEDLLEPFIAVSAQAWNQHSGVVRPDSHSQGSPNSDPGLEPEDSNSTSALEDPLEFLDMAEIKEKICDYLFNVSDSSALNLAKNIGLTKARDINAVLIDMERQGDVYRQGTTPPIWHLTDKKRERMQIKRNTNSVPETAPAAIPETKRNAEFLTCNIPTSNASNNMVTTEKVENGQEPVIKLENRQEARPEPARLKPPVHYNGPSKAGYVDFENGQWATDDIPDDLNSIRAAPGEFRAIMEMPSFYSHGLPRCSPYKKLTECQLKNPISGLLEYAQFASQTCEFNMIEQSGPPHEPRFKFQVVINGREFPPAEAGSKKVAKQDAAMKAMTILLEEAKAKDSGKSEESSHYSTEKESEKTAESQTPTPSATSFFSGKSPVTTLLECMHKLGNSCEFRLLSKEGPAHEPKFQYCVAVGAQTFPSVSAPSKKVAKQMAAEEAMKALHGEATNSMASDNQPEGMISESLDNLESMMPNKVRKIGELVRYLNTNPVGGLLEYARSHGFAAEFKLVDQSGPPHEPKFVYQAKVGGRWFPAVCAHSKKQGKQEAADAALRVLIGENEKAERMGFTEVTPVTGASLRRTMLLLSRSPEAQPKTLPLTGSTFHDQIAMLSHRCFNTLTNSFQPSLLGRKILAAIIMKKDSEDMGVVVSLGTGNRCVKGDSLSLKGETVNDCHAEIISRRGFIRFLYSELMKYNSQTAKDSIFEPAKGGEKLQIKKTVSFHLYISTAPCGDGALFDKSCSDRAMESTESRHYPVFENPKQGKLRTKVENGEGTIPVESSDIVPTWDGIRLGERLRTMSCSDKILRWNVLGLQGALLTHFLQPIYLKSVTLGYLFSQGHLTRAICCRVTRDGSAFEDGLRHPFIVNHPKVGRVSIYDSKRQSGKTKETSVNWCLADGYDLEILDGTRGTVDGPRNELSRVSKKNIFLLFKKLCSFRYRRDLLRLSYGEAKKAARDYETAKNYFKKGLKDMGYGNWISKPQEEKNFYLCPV
Assay: ADAR1 Inhibition Assay (IFN fold-induction, Quanti-Luc luminescence, p110 KO A549 dual cells)
Format: cell-based
Conditions: IFN fold-induction vs DMSO, 24 and 48 h
Procedure, shortened: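 EC50 derived from IFN fold-induction, calculated as sample RLU over average DMSO RLU. Luminescence measured by Quanti-Luc on samples taken after 24 and 48 h of compound exposure (1% DMSO final, 37 °C, 5% CO2). Cells were p110 KO A549 dual, seeded at 20,000 per well in supplemented DMEM.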

| Structure (SMILES) | EC50 [µM] |
| --- | --- |
| CS(=O)(=O)Nc1cccc(C(=O)OCCNC(=O)c2csc(-c3ccccc3)c2)c1 [Compound 271] | > 100 |
| CCOC(=O)c1cc(-c2ccccc2)sc1NC(=O)c1nncn1-c1cccc(NS(C)(=O)=O)c1 [Compound 272] | > 100 |
| CCOC(=O)c1cc(-c2ccccc2)sc1NC(=O)c1nn(-c2cccc(NS(C)(=O)=O)c2)c(=O)cc1C [Compound 273] | > 100 |
| CCOC(=O)c1cc(-c2ccccc2)sc1NC(=O)NS(=O)(=O)c1cccc(NS(C)(=O)=O)c1 [Compound 275] | > 100 |
| CCOC(=O)c1cc(-c2ccccc2)sc1NC(=O)CCOc1cccc(NS(C)(=O)=O)c1 [Compound 276] | > 100 |
| CCOC(=O)c1ccncc1NC(=O)COC(=O)c1cccc(NS(C)(=O)=O)c1 [Compound 277] | > 100 |
| CCOC(=O)c1cc(-c2ccccc2)sc1N1CCN(C(=O)c2cccc(NS(C)(=O)=O)c2)CC1 [Compound 279] | > 100 |
| CCOC(=O)c1cc(-c2ccccc2)sc1NC(=O)CN1CCN(c2cccc(NS(C)(=O)=O)c2)CC1 [Compound 280] | > 100 |
| CS(=O)(=O)Nc1cccc(C(=O)NNC(=O)c2csc(-c3ccccc3)c2)c1 [Compound 281] | > 100 |
| CCOC(=O)c1cc(-c2ccccc2)sc1NC(=O)CONC(=O)c1cccc(NS(C)(=O)=O)c1 [Compound 282] | > 100 |
| CCOC(=O)c1cc(-c2ccccc2)sc1NC(=O)CO/N=C/c1cccc(NS(C)(=O)=O)c1 [Compound 283] | > 100 |
| CCOC(=O)c1cc(-c2ccccc2)sc1NC(=O)C1CCC(NC(=O)c2cccc(NS(C)(=O)=O)c2)CC1 (centres unmarked) [Compound 285] | > 100 |
| CCOC(=O)c1c(NC(=O)COC(=O)c2cccc(NS(C)(=O)=O)c2)sc(N2CCOCC2)c1C [Compound 287] | > 100 |
| CCOC(=O)c1cc(-c2ccccc2)sc1NC(=O)Cn1nc(-c2cccc(NS(C)(=O)=O)c2)oc1=O [Compound 288] | > 100 |
| CS(=O)(=O)Nc1cccc(C(=O)OCCNC(=O)c2cc(-c3ccccc3)sc2N)c1 [Compound 289] | > 100 |
| CCOC(=O)c1cc(-c2ccccc2)sc1NC(=O)OCc1nnc(-c2cccc(NS(C)(=O)=O)c2)o1 [Compound 290] | > 100 |
| CCOC(=O)c1cc(-c2ccccc2)sc1NC(=O)CN1C(=O)COc2ccc(NS(C)(=O)=O)cc21 [Compound 291] | > 100 |
| CCOC(=O)c1cc(C2CCNCC2)sc1NC(=O)COC(=O)c1cccc(NS(C)(=O)=O)c1 [Compound 295] | > 100 |

| Structure (SMILES) | EC50 [µM] |
| --- | --- |
| CCOC(=O)c1cc(-c2ccccc2)sc1NC(=O)CCC(=O)c1cccc(NS(C)(=O)=O)c1 [Compound 303] | 50 to 100 |
| CCOC(=O)c1cc(-c2ccc3c(cnn3C)c2)sc1NC(=O)COC(=O)c1cccc(NS(C)(=O)=O)c1 [Compound 305] | 50 to 100 |
| COC(=O)c1sccc1NC(=O)COC(=O)c1cccc(NS(C)(=O)=O)c1 [Compound 306] | > 100 |
| CCOC(=O)c1cc(-c2ccccc2)sc1S(=O)(=O)N1CCN(S(C)(=O)=O)CC1 [Compound 307] | > 100 |
| CCOC(=O)c1cc(-c2ccccc2)sc1S(=O)(=O)N1CCN(C(=O)c2cccc(NS(C)(=O)=O)c2)CC1 [Compound 309] | 50 to 100 |
| COC(=O)c1sc(-c2ccccc2)cc1NC(=O)COC(=O)c1cccc(NS(C)(=O)=O)c1 [Compound 311] | ≤ 25 |
| CCOC(=O)c1cc(Sc2ccccc2)sc1NC(=O)COC(=O)c1cccc(NS(C)(=O)=O)c1 [Compound 315] | > 100 |
| CCOC(=O)c1cc(-c2ccc3c(c2)OCO3)sc1NC(=O)COC(=O)c1cccc(NS(C)(=O)=O)c1 [Compound 316] | > 100 |
| CCOC(=O)c1cc(-c2ccc3c(c2)OCCO3)sc1NC(=O)COC(=O)c1cccc(NS(C)(=O)=O)c1 [Compound 317] | > 100 |
| COC(=O)c1sc(-c2ccccc2)cc1NC(=O)COC(=O)c1cccc(S(N)(=O)=O)c1 [Compound 318] | 50 to 100 |
| CCOC(=O)c1cc(-c2ccccc2)sc1NC(=O)Cn1ccc(=O)c(O)c1C [Compound 319] | > 100 |
| COC(=O)c1scc(-c2ccccc2)c1NC(=O)COC(=O)c1cccc(NS(C)(=O)=O)c1 [Compound 320] | > 100 |
| CCOC(=O)c1cc(-c2ccccc2)sc1NC(=O)COC(=O)c1cccc(NS(=O)(=O)c2c(C)noc2C)c1 [Compound 322] | > 100 |
| CCOC(=O)c1cc(-c2ccccc2)sc1NC(=O)CCSc1cccc(NS(C)(=O)=O)c1 [Compound 324] | > 100 |
| COC(=O)c1sc(-c2ccccc2)cc1NC(=O)CNC(=O)c1cccc(NS(C)(=O)=O)c1 [Compound 332] | > 100 |
| CCOC(=O)c1cc(-c2ccccc2)sc1NC(=O)C1CCN(C(=O)Cc2cccc(NS(C)(=O)=O)c2)C1 (centres unmarked) [Compound 333] | 50 to 100 |
| CCOC(=O)c1cc(-c2ccccc2)sc1NC(=O)CN1CCN(C(=O)Cc2cccc(NS(C)(=O)=O)c2)CC1 [Compound 334] | > 100 |
| CCOC(=O)c1cc(-c2ccc3c(cnn3C)c2)sc1NC(=O)CNC(=O)Cc1cccc(NS(C)(=O)=O)c1 [Compound 335] | > 100 |

Results, then the compound that gave them:

| EC50 [µM] | Structure (SMILES) |
| --- | --- |
| > 100 | CCOC(=O)c1cc(-c2ccccc2)sc1NC(=O)c1ccc(-c2cccc(NS(C)(=O)=O)c2)o1 [Compound 268] |
| > 100 | CS(=O)(=O)Nc1cccc(NC(=O)c2cc(-c3ccccc3)sc2N)c1 [Compound 269] |
| > 100 | CCOC(=O)c1cc(C2=CCN(C)CC2)sc1NC(=O)COC(=O)c1cccc(NS(C)(=O)=O)c1 [Compound 278] |
| > 100 | C=CC(=O)Nc1cccc(C(=O)OCC(=O)Nc2sc(-c3ccccc3)cc2C(=O)OCC)c1 [Compound 284] |
| > 100 | CS(=O)(=O)Nc1cccc(-c2nc3sc(-c4ccccc4)cc3c(=O)[nH]2)c1 [Compound 286] |
| ≤ 25 | CCOC(=O)c1cc(-c2ccccc2)sc1NC(=O)COC(=O)c1cccc(NS(=O)(=O)c2ccn(C)n2)c1 [Compound 296] |
| > 100 | CCOC(=O)c1cc(-c2ccccc2)sc1NC(=O)CS(=O)(=O)c1cccc(NS(C)(=O)=O)c1 [Compound 297] |
| > 100 | CCOC(=O)c1cnc(NC(=O)COC(=O)c2cccc(NS(C)(=O)=O)c2)nc1-c1ccccc1 [Compound 298] |
| > 100 | CCOC(=O)c1cc(-c2ccccc2)sc1NC(=O)COC(=O)c1cccc(B(O)O)c1 [Compound 299] |
| > 100 | CCOC(=O)c1cc(-c2ccccc2)sc1NC(=O)COc1cc(C(F)(F)F)nc(NS(C)(=O)=O)n1 [Compound 300] |
| 50 to 100 | CCOC(=O)c1cc(-c2ccccc2)oc1NC(=O)COC(=O)c1cccc(NS(C)(=O)=O)c1 [Compound 301] |
| 50 to 100 | CCOC(=O)c1cc(-c2ccccc2)sc1NC(=O)CC(=O)Nc1cccc(NS(C)(=O)=O)c1 [Compound 312] |
| > 100 | CCOC(=O)c1cc(-c2ccccc2)sc1-c1coc(/C=N\c2cccc(NS(C)(=O)=O)c2)c1 [Compound 313] |
| 50 to 100 | CCOC(=O)c1cc(-c2ccccc2)sc1NC(=O)COC(=O)c1cccc(Br)c1 [Compound 314] |
| > 100 | CCOC(=O)c1cc(-c2ccccc2)sc1NC(=O)c1cccc(NC(=O)c2cccc(NS(C)(=O)=O)c2)c1 [Compound 323] |
| > 100 | CCOC(=O)c1cc(-c2ccccc2)sc1NC(=O)CN(C)C(=O)Cc1cccc(NS(C)(=O)=O)c1 [Compound 336] |
| > 100 | CCOC(=O)c1cc(-c2ccccc2)sc1NC(=O)C(C)NC(=O)Cc1cccc(NS(C)(=O)=O)c1 (centres unmarked) [Compound 337] |

From US20260200890A1, “ADAR1 INHIBITORS AND METHODS OF USING THE SAME” (AVAMMUNE THERAPEUTICS INC., priority 2022, published 2026)
